The values below come from patent publication US20190023658A1, “SUBSTITUTED 2-DIFLUOROMETHYL-NICOTIN(THIO)CARBOXANILIDE DERIVATIVES AND THEIR USE AS FUNGICIDES” (Bayer CropScience Aktiengesellschaft, priority 2015, published 2019).

SMILES strings stand for the structures.

The term LogP denotes a log measure of how a compound divides between an organic and an aqueous phase. Lower therefore signals a more hydrophilic compound. By chromatographic logP is commonly meant lipophilicity estimated from chromatographic retention. Low values mean a more hydrophilic compound, high ones a more lipophilic compound.

The nature of one series: Log P by HPLC on reversed phase columns (EEC directive 79/831 Annex V.A8). The format is physicochemical. The note with it: [a] LC-UV, acidic range, 0.1% formic acid in water and acetonitrile as eluent. As for the experimental part:
Measurement of Log P values was performed according to EEC directive 79/831 Annex V.A8 by HPLC (High Performance Liquid Chromatography) on reversed phase columns with the following methods: [a] Log P value is determined by measurement of LC-UV, in an acidic range, with 0.1% formic acid in water and acetonitrile as eluent (linear gradient from 10% acetonitrile to 95% acetonitrile). [b] Log P value is determined by measurement of LC-UV, in a neutral range, with 0.001 molar ammonium acetate solution in water and acetonitrile as eluent (linear gradient from 10% acetonitrile to 95% acetonitrile). Calibration was done with straight-chain alkan2-ones (with 3 to 16 carbon atoms) with known Log P values (measurement of Log P values using retention times with linear interpolation between successive alkanones). Lambda-max-values were determined using UV-spectra from 200 nm to 400 nm and the peak values of the chromatographic signals.
Turning to `Cc1ccccc1Oc1ccccc1NC(=O)c1cccnc1C(F)F` [Example I-02], the log partition coefficient (LogP) was 3.27^[a].

Turning to `O=C(Nc1ccccc1Oc1ccc(Cl)cc1)c1cccnc1C(F)F` [Example I-03], the lipophilicity (LogP) is 3.33^[a].

`O=C(Nc1ccccc1Oc1cc(F)cc(C(F)(F)F)c1)c1cccnc1C(F)F` [Example I-04]: the lipophilicity (LogP) is 3.57^[a].

For `COc1cccc(Oc2ccccc2NC(=O)c2cccnc2C(F)F)c1` [Example I-05], the LogP is 2.92^[a].

`O=C(Nc1ccccc1Oc1ccc(C(F)(F)F)cc1)c1cccnc1C(F)F` [Example I-07]: the LogP is 3.46^[a].

Take `O=C(Nc1ccccc1Oc1cccc(F)c1F)c1cccnc1C(F)F` [Example I-08]: the LogP is 2.98^[a].

Consider `O=C(Nc1cccc(Cl)c1Sc1ccccc1)c1cccnc1C(F)F` [Example I-09], for which the log partition coefficient (LogP) was 3.59^[a].

For `O=C(Nc1cccc(Cl)c1Oc1ccc(Cl)cc1)c1cccnc1C(F)F` [Example I-10], the lipophilicity (LogP) was 3.59^[a].

For `O=C(Nc1ccccc1Sc1ccccc1)c1cccnc1C(F)F` [Example I-11], the LogP is 3.21^[a].

As for `O=C(Nc1ccccc1Oc1cc(F)cc(F)c1)c1cccnc1C(F)F` [Example I-12], the lipophilicity (LogP) was 3.11^[a].

Consider `COc1ccc(Oc2ccccc2NC(=O)c2cccnc2C(F)F)cc1` [Example I-13], for which the LogP is 2.90^[a].

For `O=C(Nc1ccccc1Sc1ccc(Cl)cc1)c1cccnc1C(F)F` [Example I-14], the lipophilicity (LogP) is 3.57^[a].

Consider `O=C(Nc1ccccc1Oc1ccccc1F)c1cccnc1C(F)F` [Example I-15], for which the LogP was 2.88^[a].

In the case of `O=C(Nc1ccccc1Oc1ccc(F)c(F)c1)c1cccnc1C(F)F` [Example I-16], the LogP is 3.09^[a].

Consider `O=C(Nc1ccccc1Oc1ccc(Cl)cc1Cl)c1cccnc1C(F)F` [Example I-17], for which the LogP was 3.65^[a].

For `O=C(Nc1ccccc1Oc1cccc(C(F)(F)F)c1)c1cccnc1C(F)F` [Example I-18], the LogP is 3.44^[a].

On to `Cc1cccc(Oc2ccccc2NC(=O)c2cccnc2C(F)F)c1` [Example I-19], for which the LogP was 3.23^[a].

Consider `O=C(Nc1ccccc1Oc1ccccc1)c1cccnc1C(F)F` [Example I-20], for which the LogP was 2.90^[a].

For the compound `COc1ccccc1Oc1ccccc1NC(=O)c1cccnc1C(F)F` [Example I-21], the LogP is 2.88^[a].

For `O=C(Nc1cccc(Cl)c1Oc1ccccc1)c1cccnc1C(F)F` [Example I-22], the LogP was 3.15^[a].

Take `O=C(Nc1ccccc1S(=O)(=O)c1ccccc1)c1cccnc1C(F)F` [Example I-23]: the log partition coefficient (LogP) was 2.56^[a].

In the case of `O=C(Nc1cc(C(F)(F)F)ccc1Oc1ccccc1)c1cccnc1C(F)F` [Example I-24], the LogP is 3.63^[a].

Take `O=C(Nc1ccccc1Oc1cc(Cl)cc(Cl)c1)c1cccnc1C(F)F` [Example I-25]: the LogP is 3.81^[a].

For the compound `O=C(Nc1ccccc1Oc1ccccc1Cl)c1cccnc1C(F)F` [Example I-26], the log partition coefficient (LogP) was 3.11^[a].

On to `O=C(Nc1ccccc1Oc1cccc(F)c1)c1cccnc1C(F)F` [Example I-27], for which the lipophilicity (LogP) is 2.96^[a].

`O=C(Nc1ccccc1Oc1ccc(F)cc1)c1cccnc1C(F)F` [Example I-28]: the LogP was 2.96^[a].

Regarding `N#Cc1ccc(Oc2ccccc2NC(=O)c2cccnc2C(F)F)cc1` [Example I-29], the LogP is 2.51^[a].

As to `O=C(Nc1ccccc1Oc1ccc(Br)cc1)c1cccnc1C(F)F` [Example I-30], the LogP is 3.39^[a].

In the case of `CON=Cc1ccc(-c2ccccc2NC(=O)c2cccnc2C(F)F)cc1` [Example I-32], the LogP was 2.86^[a].

Regarding `CON=Cc1c(F)cc(-c2cccc(F)c2NC(=O)c2cccnc2C(F)F)cc1F` [Example I-33], the lipophilicity (LogP) is 2.97^[a].

Turning to `O=C(Nc1ccccc1-c1ccc(F)cc1)c1cccnc1C(F)F` [Example I-34], the lipophilicity (LogP) was 2.66^[a].

In the case of `O=C(Nc1ccccc1-c1ccc(Cl)c(F)c1)c1cccnc1C(F)F` [Example I-35], the log partition coefficient (LogP) was 3.06^[a].

Turning to `N#Cc1c(F)cc(-c2ccccc2NC(=O)c2cccnc2C(F)F)cc1F` [Example I-36], the LogP is 2.71^[a].

In the case of `O=C(Nc1ccc(F)cc1-c1ccc(Cl)c(Cl)c1)c1cccnc1C(F)F` [Example I-37], the lipophilicity (LogP) is 3.44^[a].

As to `O=C(Nc1ccccc1-c1cc(F)cc(F)c1)c1cccnc1C(F)F` [Example I-38], the log partition coefficient (LogP) is 2.80^[a].

As to `O=C(Nc1ccccc1-c1cccc(C(F)(F)F)c1)c1cccnc1C(F)F` [Example I-39], the LogP is 3.15^[a].

`O=C(Nc1ccccc1-c1ccc(Cl)cc1)c1cccnc1C(F)F` [Example I-40]: the log partition coefficient (LogP) is 2.92^[a].

With `CCON=Cc1ccc(-c2ccccc2NC(=O)c2cccnc2C(F)F)cc1` [Example I-41], the lipophilicity (LogP) is 3.23^[a].

In the case of `O=C(Nc1ccccc1-c1ccc(F)c(F)c1)c1cccnc1C(F)F` [Example I-42], the LogP is 2.78^[a].

With `O=C(Nc1ccccc1-c1ccc(C(F)(F)F)c(F)c1)c1cccnc1C(F)F` [Example I-43], the LogP is 3.25^[a].

Take `O=C(Nc1ccccc1-c1ccccc1C(F)(F)F)c1cccnc1C(F)F` [Example I-44]: the LogP came to 2.99.

Turning to `O=C(Nc1ccccc1-c1ccc(F)cc1F)c1cccnc1C(F)F` [Example I-45], the LogP was 2.66^[a].

As to `O=C(Nc1ccc(F)cc1-c1ccc(F)cc1)c1cccnc1C(F)F` [Example I-47], the lipophilicity (LogP) is 2.73^[a].

On to `O=C(Nc1ccccc1-c1cc(F)c(F)c(F)c1)c1cccnc1C(F)F` [Example I-48], for which the LogP is 2.92^[a].

Regarding `CON=Cc1c(F)cc(-c2ccccc2NC(=O)c2cccnc2C(F)F)cc1F` [Example I-49], the log partition coefficient (LogP) was 3.17^[a].

In the case of `CCON=Cc1c(F)cc(-c2ccccc2NC(=O)c2cccnc2C(F)F)cc1F` [Example I-50], the log partition coefficient (LogP) is 3.46^[a].

`O=C(Nc1ccccc1-c1ccccc1Cl)c1cccnc1C(F)F` [Example I-51]: the log partition coefficient (LogP) is on record as 2.74.

Consider `O=C(Nc1ccccc1-c1cccc(Cl)c1)c1cccnc1C(F)F` [Example I-52], for which the LogP was 2.96^[a].

Turning to `O=C(Nc1ccccc1-c1cc(Cl)cc(Cl)c1)c1cccnc1C(F)F` [Example I-53], the LogP is 3.48^[a].

With `O=C(Nc1ccccc1-c1ccc(Cl)c(Cl)c1)c1cccnc1C(F)F` [Example I-54], the LogP is 3.35^[a].

In the case of `COC(=N)c1c(F)cc(-c2cc(F)ccc2NC(=O)c2cccnc2C(F)F)cc1F` [Example I-55], the log partition coefficient (LogP) was 3.16^[a].

Turning to `CSc1ccc(-c2ccccc2NC(=O)c2cccnc2C(F)F)cc1` [Example I-56], the LogP is 2.94^[a].

Consider `CCOc1c(F)cc(-c2ccccc2NC(=O)c2cccnc2C(F)F)cc1F` [Example I-57], for which the lipophilicity (LogP) was 3.29^[a].

For the compound `CCCOc1c(F)cc(-c2ccccc2NC(=O)c2cccnc2C(F)F)cc1F` [Example I-58], the log partition coefficient (LogP) was 3.61^[a].

As to `CCCCOc1c(F)cc(-c2ccccc2NC(=O)c2cccnc2C(F)F)cc1F` [Example I-59], the LogP was 3.99^[a].

As for `CCON=Cc1c(F)cc(-c2cccc(F)c2NC(=O)c2cccnc2C(F)F)cc1F` [Example I-60], the LogP is 3.35^[a].

Consider `O=C(Nc1ccccc1-c1ccccc1)c1cccnc1C(F)F` [Example I-61], for which the LogP was 2.55^[a].

For the compound `CC(C)(C)C#Cc1ccc(-c2ccccc2NC(=O)c2cccnc2C(F)F)cc1` [Example I-62], the lipophilicity (LogP) was 4.29^[a].

In the case of `O=C(Nc1ccccc1-c1ccc(C(F)(F)F)c(Cl)c1)c1cccnc1C(F)F` [Example I-63], the LogP was 3.50^[a].

In the case of `CCON=Cc1c(F)cc(-c2cc(F)ccc2NC(=O)c2cccnc2C(F)F)cc1F` [Example I-65], the LogP is 3.55^[a].

Turning to `O=C(Nc1ccccc1-c1ccc(F)c(Cl)c1)c1cccnc1C(F)F` [Example I-66], the LogP was 3.04^[a].

As to `CCON=Cc1ccc(-c2ccccc2NC(=S)c2cccnc2C(F)F)cc1` [Example I-67], the LogP is 3.70^[a].

For `COC(=N)c1c(F)cc(-c2cc(F)ccc2NC(=S)c2cccnc2C(F)F)cc1F` [Example I-69], the log partition coefficient (LogP) is 3.73^[a].

Regarding `CCON=Cc1c(F)cc(-c2cc(F)ccc2NC(=S)c2cccnc2C(F)F)cc1F` [Example I-70], the LogP is 4.11^[a].

For the compound `N#Cc1c(F)cc(-c2ccccc2NC(=S)c2cccnc2C(F)F)cc1F` [Example I-71], the LogP is 3.19^[a].

On to `CCON=Cc1c(F)cc(-c2cccc(F)c2NC(=S)c2cccnc2C(F)F)cc1F` [Example I-72], for which the lipophilicity (LogP) is 3.99^[a].

For the compound `Fc1ccc(-c2ccccc2NC(=S)c2cccnc2C(F)F)cc1F` [Example I-73], the LogP was 3.27^[a].

Staying with this series, now noted: [b] LC-UV, neutral range, 0.001 molar ammonium acetate solution in water and acetonitrile as eluent.
`O=C(Nc1ccccc1-c1ccccc1C(F)(F)F)c1cccnc1C(F)F` [Example I-44] showed a LogP of 2.93.

Regarding `O=C(Nc1ccccc1-c1ccccc1Cl)c1cccnc1C(F)F` [Example I-51], the LogP turned out to be 2.68.

The series is the same for the next values; noted with them: reversed phase HPLC column; [a] LC-UV, acidic range, 0.1% formic acid in water and acetonitrile as eluent.
Regarding `Cc1ccc(Oc2ccccc2NC(=O)c2cccnc2C(F)F)cc1` [Example I-01, 2-(difluoromethyl)-N-[2-(4-methylphenoxy)phenyl]nicotinamide], the chromatographic logP turned out to be 3.27.

`FC(F)c1ncccc1C(=S)Nc1ccccc1-c1ccc(C(F)(F)F)c(Cl)c1` [Example I-68, N-[3′-chloro-4′-(trifluoromethyl)biphenyl-2-yl]-2-(difluoromethyl)pyridine-3-carbothioamide] yielded a chromatographic logP of 3.94.
